Data set [1] has as its system Mycolicibacterium smegmatis. Kind of data set: Antimycobacterial activity against Mycobacterium smegmatis CMCC 93202 after 72 hrs by serial double dilution technique. It is filed as functional. As to conditions: CMCC 93202, 72 h.
Data set [2] can be described thus: Cytotoxicity against african green monkey Vero cells after 72 hrs by MTT assat. As to conditions: chlorocebus sabaeus.
Data set [3] deals with Mycobacterium tuberculosis. Kind of data set: microbe, parasite or virus in culture. As to conditions: H37Rv ATCC 27294, 168 h. The format is functional.
Description: Antimycobacterial activity against Mycobacterium tuberculosis H37Rv ATCC 27294 after 7 days by serial double dilution technique
The test system of data set [4] is Mycobacterium tuberculosis. Kind of data set: Ratio of compound MIC to 8-OCH3 ciprofloxacin MIC for Mycobacterium tuberculosis H37Rv ATCC 27294. It is filed as functional.

In brackets after ≈: the same amount, converted by molar mass.

Molecule `COc1c(N2CCN(CCN3C(=O)C(=O)c4ccccc43)CC2)c(F)cc2c(=O)c(C(=O)O)cn(C3CC3)c12` yielded an MIC in data set [1] of 5.84 µM (≈ 3.12 µg/mL).

In general, CC50 refers to the concentration giving 50% cytotoxicity. Molecule `O=C(O)c1cn(C2CC2)c2cc(N3CCNCC3)c(F)cc2c1=O` [CIPROFLOXACIN] yielded a CC50 at 72 h in data set [2] (vero) of 601 µM. For the same molecule, the values for the MIC in data set [3] and in data set [1] were 0.97 µM (≈ 0.321 µg/mL) and 2.36 µM (≈ 0.782 µg/mL), respectively.

Regarding `CO[C@H]1/C=C/O[C@@]2(C)Oc3c(C)c(O)c4c(O)c(c(/C=N/N5CCN(C)CC5)c(O)c4c3C2=O)NC(=O)/C(C)=C\C=C\[C@H](C)[C@H](O)[C@@H](C)[C@@H](O)[C@@H](C)[C@H](OC(C)=O)[C@@H]1C` [RIFAMPIN], half-maximal cytotoxicity in data set [2] (Vero cells) (CC50 at 72 h) was put at 180 µM. For the same molecule, the results for the MIC in data set [3] and in data set [1] were 0.19 µM (≈ 0.156 µg/mL) and 3.79 µM (≈ 3.12 µg/mL), respectively.

In data set [2] (Vero cells), `COc1c(N2CCN(CN3C(=O)C(=O)c4cc(F)ccc43)CC2)c(F)cc2c(=O)c(C(=O)O)cn(C3CC3)c12` displayed a CC50 at 72 h of 70.6 µM. Further, the MIC in data set [3] was 0.074 µM (≈ 0.0398 µg/mL); in data set [1] it was 2.9 µM (≈ 1.56 µg/mL).

Take `COc1c(N2CCN(CN3C(=O)/C(=N\NC(N)=S)c4ccccc43)CC2)c(F)cc2c(=O)c(C(=O)O)cn(C3CC3)c12`: the CC50 at 72 h in data set [2] (Vero cells) was found to be 154 µM. In addition, the MIC in data set [3] came out at 0.13 µM (≈ 0.0772 µg/mL); in data set [1] it was 2.63 µM (≈ 1.56 µg/mL). Besides, the Ratio in data set [4] is given as 1.6.

In data set [2] (Vero cells), `CO/N=C1\C(=O)N(CCN2CCN(c3c(F)cc4c(=O)c(C(=O)O)cn(C5CC5)c4c3OC)CC2)c2ccc(F)cc21` came in with a CC50 at 72 h of 12.8 µM. Further, the MIC came to 1.1 µM (≈ 0.64 µg/mL) in data set [3] and 2.68 µM (≈ 1.56 µg/mL) in data set [1].

For `CCO/N=C1\C(=O)N(CCN2CCN(c3c(F)cc4c(=O)c(C(=O)O)cn(C5CC5)c4c3OC)CC2)c2ccc(F)cc21`, the MIC in data set [1] worked out at 1.31 µM (≈ 0.78 µg/mL).

Consider `COc1c(N2CCN(CN3C(=O)/C(=N\O)c4ccccc43)CC2)c(F)cc2c(=O)c(C(=O)O)cn(C3CC3)c12`, for which the CC50 at 72 h in data set [2] (Vero cells) was found to be 74.4 µM. Also, the MIC in data set [3] came out at 0.15 µM (≈ 0.0803 µg/mL); in data set [1], 2.92 µM (≈ 1.56 µg/mL).

As to `COc1c(N2CCN(CN3C(=O)C(=O)c4ccccc43)CC2)c(F)cc2c(=O)c(C(=O)O)cn(C3CC3)c12`, the CC50 at 72 h in data set [2] (Vero cells) stood at 70.8 µM. Further, the results for the MIC in data set [3] and in data set [1] were 0.15 µM (≈ 0.0781 µg/mL) and 24 µM (≈ 12.5 µg/mL), respectively.

In data set [2] (Vero cells), `COc1c(N2CCN(CN3C(=O)/C(=N\O)c4cc(F)ccc43)CC2)c(F)cc2c(=O)c(C(=O)O)cn(C3CC3)c12` registered a CC50 at 72 h of 73.8 µM. In addition, the MIC in data set [3] was determined as 0.14 µM (≈ 0.0775 µg/mL); in data set [1], 1.41 µM (≈ 0.78 µg/mL).

As to `COc1c(N2CCN(CCN3C(=O)/C(=N\NC(N)=S)c4cc(F)ccc43)CC2)c(F)cc2c(=O)c(C(=O)O)cn(C3CC3)c12`, in data set [2] (Vero cells), the 50% cytotoxic concentration (CC50) at 72 h came to 57 µM. Besides, the MIC came to 1.02 µM (≈ 0.638 µg/mL) in data set [3] and 2.5 µM (≈ 1.56 µg/mL) in data set [1].

The molecule `COc1c(N2CCN(CCN3C(=O)/C(=N\NC(N)=O)c4cc(F)ccc43)CC2)c(F)cc2c(=O)c(C(=O)O)cn(C3CC3)c12` yielded an MIC in data set [1] of 5.12 µM (≈ 3.12 µg/mL).

Take `COc1c(N2CCN(CN3C(=O)/C(=N\NC(N)=O)c4ccccc43)CC2)c(F)cc2c(=O)c(C(=O)O)cn(C3CC3)c12`: in data set [2] (Vero cells), the cytotoxic concentration (CC50) at 72 h was 266 µM. Further, the MIC in data set [3] was 0.14 µM (≈ 0.0809 µg/mL); in data set [1] it was 1.35 µM (≈ 0.78 µg/mL). In addition, the Ratio in data set [4] is 1.6.

In data set [2] (Vero cells), `CCO/N=C1\C(=O)N(CN2CCN(c3c(F)cc4c(=O)c(C(=O)O)cn(C5CC5)c4c3OC)CC2)c2ccccc21` yielded a cytotoxic concentration (CC50) at 72 h of 91.5 µM. Moreover, the values for the MIC in data set [3] and in data set [1] were 0.14 µM (≈ 0.0789 µg/mL) and 2.77 µM (≈ 1.56 µg/mL), respectively.

`COc1c(N2CCN(CN3C(=O)/C(=N\NC(N)=O)c4cc(F)ccc43)CC2)c(F)cc2c(=O)c(C(=O)O)cn(C3CC3)c12` registered a CC50 at 72 h in data set [2] (Vero cells) of 168 µM. The MIC in data set [3] was determined as 0.13 µM (≈ 0.0774 µg/mL); in data set [1], 2.62 µM (≈ 1.56 µg/mL). Besides, the Ratio in data set [4] turned out to be 1.6.

Molecule `CCO/N=C1\C(=O)N(CCN2CCN(c3c(F)cc4c(=O)c(C(=O)O)cn(C5CC5)c4c3OC)CC2)c2ccccc21` gave an MIC in data set [1] of 5.41 µM (≈ 3.12 µg/mL).

Turning to `CO/N=C1\C(=O)N(CN2CCN(c3c(F)cc4c(=O)c(C(=O)O)cn(C5CC5)c4c3OC)CC2)c2ccccc21`, the CC50 at 72 h in data set [2] (Vero cells) is 76.5 µM. In addition, the MIC amounted to 0.15 µM (≈ 0.0824 µg/mL) in data set [3] and 5.68 µM (≈ 3.12 µg/mL) in data set [1].

`COc1c(N2CCN(CCN3C(=O)/C(=N\O)c4cc(F)ccc43)CC2)c(F)cc2c(=O)c(C(=O)O)cn(C3CC3)c12` showed an MIC in data set [1] of 22.1 µM (≈ 12.5 µg/mL).

With `COc1c(N2CCN(CCN3C(=O)/C(=N\NC(N)=S)c4ccccc43)CC2)c(F)cc2c(=O)c(C(=O)O)cn(C3CC3)c12`, it took 56.1 µM to reach half-maximal cytotoxicity in data set [2] (Vero cells) (CC50 at 72 h). In addition, the MIC in data set [3] is 1.05 µM (≈ 0.638 µg/mL); in data set [1] it was 2.57 µM (≈ 1.56 µg/mL).

Turning to `COc1c(N2CCNCC2)c(F)cc2c(=O)c(C(=O)O)cn(C3CC3)c12`, the CC50 at 72 h in data set [2] (Vero cells) is 242 µM. The values for the MIC in data set [3] and in data set [1] were 0.22 µM (≈ 0.0795 µg/mL) and 0.54 µM (≈ 0.195 µg/mL), respectively.

In the case of `NNC(=O)c1ccncc1` [ISONIAZID], the MIC is 0.29 µM (≈ 0.0398 µg/mL) in data set [3] and 5.69 µM (≈ 0.78 µg/mL) in data set [1].

As to `CO/N=C1\C(=O)N(CN2CCN(c3c(F)cc4c(=O)c(C(=O)O)cn(C5CC5)c4c3OC)CC2)c2ccc(F)cc21`, the CC50 at 72 h in data set [2] (Vero cells) was 46.8 µM. The MIC in data set [3] is 0.14 µM (≈ 0.0795 µg/mL); in data set [1], 2.75 µM (≈ 1.56 µg/mL). For the same molecule, the Ratio in data set [4] is 1.6.

In the case of `CCO/N=C1\C(=O)N(CN2CCN(c3c(F)cc4c(=O)c(C(=O)O)cn(C5CC5)c4c3OC)CC2)c2ccc(F)cc21`, in data set [2] (Vero cells), the CC50 at 72 h is 85.8 µM. Moreover, the results for the MIC in data set [3] and in data set [1] were 0.55 µM (≈ 0.32 µg/mL) and 2.68 µM (≈ 1.56 µg/mL), respectively.

In data set [1], `COc1c(N2CCN(CCN3C(=O)/C(=N\NC(N)=O)c4ccccc43)CC2)c(F)cc2c(=O)c(C(=O)O)cn(C3CC3)c12` returned an MIC of 5.28 µM (≈ 3.12 µg/mL).

`CO/N=C1\C(=O)N(CCN2CCN(c3c(F)cc4c(=O)c(C(=O)O)cn(C5CC5)c4c3OC)CC2)c2ccccc21` showed a CC50 at 72 h in data set [2] (Vero cells) of 306 µM. The MIC was found to be 1.14 µM (≈ 0.642 µg/mL) in data set [3] and 2.77 µM (≈ 1.56 µg/mL) in data set [1].

`COc1c(N2CCN(CCN3C(=O)C(=O)c4cc(F)ccc43)CC2)c(F)cc2c(=O)c(C(=O)O)cn(C3CC3)c12` showed an MIC in data set [1] of 2.83 µM (≈ 1.56 µg/mL).

`COc1c(N2CCN(CCN3C(=O)/C(=N\O)c4ccccc43)CC2)c(F)cc2c(=O)c(C(=O)O)cn(C3CC3)c12` returned an MIC in data set [1] of 11.4 µM (≈ 6.25 µg/mL).

The values above are taken from ChEMBL document CHEMBL1649408, “Synthesis and in vitro antimycobacterial activity of 8-OCH(3) ciprofloxacin methylene and ethylene isatin derivatives” (Eur J Med Chem, 2011).
